“Also recorded” adds a separate entry of the source.
Assays:
rTRPV2 = target: T1, rTRPV2 (Rattus norvegicus, UniProt Q9WUD2, A713V/L151P/T158I); test: Whole-cell voltage-clamp recording in TRPV2 transfected HEK293T cell line; assay type: cell-based; settings: 100 μM probenecid; +60 mV and −60 mV; n=5
T1 construct: expressed in transfected cells; host or cells: HEK293T (ATCC CRL-11268)
T1 sequence (Q9WUD2 1-761 L151P/T158I/A713V): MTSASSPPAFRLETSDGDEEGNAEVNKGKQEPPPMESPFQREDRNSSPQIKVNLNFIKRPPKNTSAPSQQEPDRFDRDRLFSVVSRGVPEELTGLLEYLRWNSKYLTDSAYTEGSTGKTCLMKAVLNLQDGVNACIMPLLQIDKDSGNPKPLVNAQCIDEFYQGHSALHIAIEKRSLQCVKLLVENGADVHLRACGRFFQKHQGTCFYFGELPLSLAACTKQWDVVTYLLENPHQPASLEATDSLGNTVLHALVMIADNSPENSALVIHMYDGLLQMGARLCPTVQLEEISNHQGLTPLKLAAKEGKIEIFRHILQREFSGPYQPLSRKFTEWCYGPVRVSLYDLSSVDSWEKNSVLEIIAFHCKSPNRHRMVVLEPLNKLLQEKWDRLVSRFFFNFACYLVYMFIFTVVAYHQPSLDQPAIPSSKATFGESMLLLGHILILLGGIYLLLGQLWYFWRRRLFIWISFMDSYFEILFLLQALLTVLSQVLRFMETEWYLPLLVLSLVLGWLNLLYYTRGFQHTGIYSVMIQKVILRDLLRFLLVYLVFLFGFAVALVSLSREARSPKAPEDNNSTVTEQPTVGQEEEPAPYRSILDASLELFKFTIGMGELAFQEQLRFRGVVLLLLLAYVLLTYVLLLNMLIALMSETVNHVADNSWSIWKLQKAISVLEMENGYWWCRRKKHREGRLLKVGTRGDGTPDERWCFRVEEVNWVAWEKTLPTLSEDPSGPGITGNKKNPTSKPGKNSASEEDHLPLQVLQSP
Description: (§1) HEK293T cell line (ATCC CRL-1 1268) was transiently transfected with plasmid DNA containing polynucleotide encoding […] (SEQ. ID. NO: 1), rTRPV2 (SEQ. ID. NO: 2), mTRPV3 (SEQ. ID. NO: 3), rTRPV4 (SEQ. ID. NO: 4), mTRPM8 (SEQ. ID. NO: 5) or mTRPA1 (SEQ. ID. NO: 6).
(§2) Particularly, the HEK293T cell line was transiently transfected with individual TRP channel plasmid (pcDNA3.1 containing polynucleotide encoding rTRPV1, rTRPV2, mTRPV3, rTRPV4, mTRPM8 or mTRPA1), and 600 ng/well of pCDNA3 (Invitrogen Corp., USA; containing green fluorescent protein (GFP) cDNA) using Fugene6 (Roche Diagnostics, USA) according to manufacturer's instruction. The transformed cells were cultured in DMEM/F12 containing 10% FBS and 1% penicillin/streptomycin in a CO2 incubator for 24 hours. The cells were replated onto poly-L-lysine-coated glass coverslips, followed by further culture for 10-24 hours.
The TRPV2 transfected cell line prepared in Example 1 was treated with 100 μM probenecid (Sigma-Aldrich, USA) and 300 μM 2-APB (2-aminoethoxydiphenyl borate; Cayman Chemical, USA), respectively. Stock solutions were made using water, DMSO or ethanol, and were diluted with test solutions before use.
Whole-cell voltage-clamp recording, one of the patch-clamp techniques, was performed with the transfected cell line of Example <1-1> according to the method of Bandel M, et al. (Neuron 41:849-857, 2004).
Particularly, the extracellular solution (140 mM NaCl, 5 mM KCl, 2 mM CaCl2, 1 mM MgCl2, 10 mM HEPES; titrated to pH 7.4 with NaOH) and the pipette solution (140 mM CsCl, 5 mM EGTA, 10 mM HEPES, 2.0 mM MgATP, 0.2 mM NaGTP; titrated to pH 7.2 with CsOH) were used. The potential was held at −60 mV for 250 ms, voltage-ramp pulsed from −80 mV to +80 mV for […] and returned to −60 mV for 250 ms, which was repeated without intersweep. This experiment was repeated 5 times.
The TRPV2 transfected cell line prepared by the method of Example 1 was treated with 100 μM probenecid, 100 μM probenecid+20 μM ruthenium red (Sigma-Aldrich, USA) and 300 μM 2-APB, respectively. […]

rTRPV1 = target: T2, rTRPV1 (Rattus norvegicus, UniProt O35433); test: Fluo-3 calcium imaging in TRPV1 transfected HEK293T cell line; assay type: cell-based; settings: 100 μM probenecid
T2 construct: expressed in transfected cells; host or cells: HEK293T (ATCC CRL-11268)
Description: as §1, §2
Particularly, the transfected cell line of Example <3-1> and Example <3-2> was loaded with Fluo-3AM (5 μM; Sigma Aldrich, USA) in the bath solution (140 mM NaCl, 5 mM KCl, 2 mM CaCl2, 1 mM MgCl2, 10 mM HEPES; adjusted to pH 7.4 with NaOH) containing 0.02% pluronic acid (Invitrogen, USA) at 37° C. for 1 hour. […]

Oral aversion test = assay type: in vivo, ICR mice
Description: Oral aversion test was confirmed according to the methods of Caterina M J, et al. (Science 288:306-313, 2000) and Kwan K Y, et al. (Neuron 50: 277-289, 2006). Particularly, adult ICR mice randomly selected and raised were allowed to drink water containing 0.125% saccharin (Sigma Aldrich, USA) only for three hours a day. Water and feed were provided for 4 days. Water and feed consumptions were measured everyday. On day 4, water containing 20 mM probenecid was provided for 3 hours. Statistical data were analyzed by two-tailed, unpaired Student's-t-test and the results were presented by mean ±S.E.M.

T2 sequence (O35433 whole entry): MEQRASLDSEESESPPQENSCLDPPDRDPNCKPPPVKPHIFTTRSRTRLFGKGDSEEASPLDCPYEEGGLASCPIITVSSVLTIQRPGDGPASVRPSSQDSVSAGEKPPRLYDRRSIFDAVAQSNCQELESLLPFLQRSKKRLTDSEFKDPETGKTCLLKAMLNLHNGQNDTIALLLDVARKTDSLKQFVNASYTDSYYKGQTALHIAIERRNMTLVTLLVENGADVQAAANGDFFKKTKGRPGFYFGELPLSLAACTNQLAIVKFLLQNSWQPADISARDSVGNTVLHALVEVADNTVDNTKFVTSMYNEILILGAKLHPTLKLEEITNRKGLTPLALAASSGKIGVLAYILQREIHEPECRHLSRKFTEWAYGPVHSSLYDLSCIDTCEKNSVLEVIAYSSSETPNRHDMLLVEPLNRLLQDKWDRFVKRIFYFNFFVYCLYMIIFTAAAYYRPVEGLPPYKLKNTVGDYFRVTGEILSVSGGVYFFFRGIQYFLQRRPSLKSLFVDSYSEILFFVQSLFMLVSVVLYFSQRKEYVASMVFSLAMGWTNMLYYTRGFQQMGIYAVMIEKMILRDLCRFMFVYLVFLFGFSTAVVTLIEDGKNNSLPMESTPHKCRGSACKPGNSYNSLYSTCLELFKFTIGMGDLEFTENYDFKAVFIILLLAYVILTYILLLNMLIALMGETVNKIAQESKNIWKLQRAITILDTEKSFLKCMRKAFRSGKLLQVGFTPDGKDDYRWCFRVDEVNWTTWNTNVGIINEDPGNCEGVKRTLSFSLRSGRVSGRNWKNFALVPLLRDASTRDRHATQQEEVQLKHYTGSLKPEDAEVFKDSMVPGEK

whole cell current (TRPV2 activation) (rTRPV2): significant increase of current
Structure (SMILES): CCCN(CCC)S(=O)(=O)c1ccc(C(=O)O)cc1 [probenecid]
TRPV1 activation (calcium imaging) (rTRPV1): only TRPV2 was activated; also recorded: not confirmed
oral aversion (Oral aversion test; water containing 20 mM probenecid): did not induce oral aversion
water and feed consumption, treated versus not treated group (Oral aversion test; water containing 20 mM probenecid for 3 hours on day 4, n=5): no significant difference

Reference: patent US7915012B2, “Methods for screening for inhibitors of TRPV2 activation” (Korea University Industry and Academic Collaboration …, priority 2008, dated 2011)
